Experiments:
Assay type in all cases: in vivo, dog
Settings in all cases: Konzett data
[1] = tested on: Ach; test: Konzett bronchodilator assay, Ach
[2] = tested on: 5-HT; test: Konzett bronchodilator assay, 5-HT
[3] = tested on: Hist; test: Konzett bronchodilator assay, Hist

## CCCCCC(C)(O)/C=C/C1C(O)CC(=O)C1C/C=C\CCCCO (racemic) [dl-1,11,15-trihydroxymethyl-9-oxo-15-methyl-5-cis-13-trans prostadiene]
[1]
  Ach (ED50 g/kg): 0.0043 g/kg
[2]
  5-HT (ED50 g/kg): 0.0083 g/kg
[3]
  Hist (ED50 g/kg): 0.00075 g/kg
